US8329454B2, “Device for detecting a cholinesterase-inhibiting substance comprising a hydrophilic photo-crosslinkable resin” (priority 2008, dated 2012)

Tests used:
cholinesterase [1] = assay: Visual detection with the cholinesterase detection device after on-column NBS oxidation (Example 1); conditions: for Detection Level (ppb): Table 1, tested in the same manner as Example 1 (NBS oxidation)
cholinesterase [2] = assay: Visual detection with the cholinesterase detection device without oxidation treatment (Comparative Example 1, Example 2); assay type: biochemical; conditions: for Detection Level (ppb): Table 1, agrichemicals marked *, taken as tested in the same manner as Example 2 (no NBS oxidation)
Description: This is a comparative experiment for confirming the effect of oxidation treatment (NBS solution suction treatment) in Example 1. In the same manner as in Example 1, the column was made to adsorb diazinone in the sample, and then not processed for oxidation treatment (NBS solution suction treatment), diazinone was eluted from the column. The eluate was added to the detection device, and an indoxyl acetate solution was added to the device.
The detection method was to follow the process shown in FIG. 3; however, since a carbamate agrichemical was the object to be detected, the NBS solution suction and discharge operation attained in Example 1 was omitted here.
As a sample, prepared was 10 mL of an aqueous solution of a carbaryl (NAC) standard liquid of a carbamate agrichemical having a diluted concentration of 10 ppb; and this was sucked in the syringe with a column chip connected to the tip thereof, as shown in FIG. 2.
The sucked solution was discharged in a beaker and again sucked, and this cycle was repeated three times whereby the sample NAC was adsorbed by the column. Subsequently, NAC was eluted from the column, and put into the device to undergo an enzyme inhibitory reaction for 5 minutes therein.
After 5 minutes, a coloring substrate of an indoxyl acetate solution was added to the device, and underwent coloration reaction for 5 minutes.
Other agrichemical substances were tested in the same manner as in Example 1 and Example 2, and the following results were obtained.

cholinesterase [3] = conditions: prior-art kit AT-10/AT-25 (Agriscreen Ticket 10/25) by NEOGEN; cited from earlier work

CCOP(=S)(OCC)SCSP(=S)(OCC)OCC [ethion]
Detection Level (ppb) (cholinesterase [1]): 10 ppb

COP1(=S)OCc2ccccc2O1 (centres unmarked) [salithion]
Detection Level (ppb) (cholinesterase [1]): 100 ppb

CS/C(C)=N\OC(=O)N(C)SN(C)C(=O)O/N=C(\C)SC [thiodicarb]
Detection Level (ppb) (cholinesterase [2]): 20 ppb

CCOP(=S)(OCC)Oc1cc(-c2ccccc2)on1 [isoxathion]
Detection Level (ppb) (cholinesterase [1]): 0.2 ppb

CCN(CC)c1nc(C)cc(OP(=S)(OC)OC)n1 [pyrimiphos-methyl]
Detection Level (ppb) (cholinesterase [1]): 20 ppb

COP(=S)(OC)Oc1ccc([N+](=O)[O-])c(C)c1 [fenitrothion]
Detection Level (ppb) (cholinesterase [1]): 40 ppb

CCOP(=S)(OCC)SCSC(C)(C)C [terbufos]
Detection Level (ppb) (cholinesterase [1]): 10 ppb

CCOP(=S)(OCC)SCn1nnc2ccccc2c1=O [azinphos-ethyl]
Detection Level (ppb) (cholinesterase [1]): 1 ppb

CCOP(=S)(OCC)Oc1ccc(Cl)cc1Cl [dichlofenthion]
Detection Level (ppb) (cholinesterase [1]): 100 ppb

CCOP(=S)(OCC)Oc1cnc2ccccc2n1 [quinalphos]
Detection Level (ppb) (cholinesterase [1]): 0.1 ppb

CNC(=O)/C=C(\C)OP(=O)(OC)OC [monocrotophos]
Detection Level (ppb) (cholinesterase [1]): 100 ppb

etorifos
Detection Level (ppb) (cholinesterase [1]): 10 ppb

COP(=S)(OC)SCn1nnc2ccccc2c1=O [azinphos-methyl]
Detection Level (ppb) (cholinesterase [1]): 8 ppb

CNC(=O)Oc1cccc2ccccc12 [carbaryl]
detected at a concentration level (cholinesterase [2]; Example 2: 10 mL aqueous sample, adsorbed on column, no NBS step, 5 min inhibition, indoxyl acetate 5 min, no coloration): 10 ppb | detection limit (cholinesterase [3]): around 7.0 ppm

CCOP(=S)(OCC)SCn1c(=O)oc2cc(Cl)ccc21 [phosalone]
Detection Level (ppb) (cholinesterase [1]): 6 ppb

CCOP(=S)(OCC)Oc1cc(C)nc(C(C)C)n1 [diazinone]
detection level (cholinesterase [2]; Comparative Example 1: as Example 1 but no oxidation treatment (no NBS)): 5 ppm | detection limit (cholinesterase [3]): ~2.0 ppm | detected at a concentration level (cholinesterase [1]; Example 1: 10 mL aqueous sample, adsorbed on column, 1% NBS oxidation to oxon form, 5 min inhibition, indoxyl acetate 5 min, no coloration): 0.1 ppb

Cc1nc(N(C)C)nc(OC(=O)N(C)C)c1C [pirimicarb]
Detection Level (ppb) (cholinesterase [2]): 8 ppb

CCOP(=S)(OCC)Oc1nc(Cl)c(Cl)cc1Cl [chlorpyrifos]
detection limit (cholinesterase [3]): ~0.7 ppm | Detection Level (ppb) (cholinesterase [1]): 0.2 ppb

COP(=S)(OC)Oc1nc(Cl)c(Cl)cc1Cl [chlorpyrifos-methyl]
detection limit (cholinesterase [3]): ~1.0 ppm | Detection Level (ppb) (cholinesterase [1]): 1 ppb

CCCSP(=O)(OCC)SCCC [etoprophos]
Detection Level (ppb) (cholinesterase [1]): 100 ppb

CCOP(=S)(NC(C)CC)Oc1cc(C)ccc1[N+](=O)[O-] (centres unmarked) [butamifos]
Detection Level (ppb) (cholinesterase [1]): 100 ppb

COP(=O)(OC)O/C(=C\Cl)c1ccc(Cl)cc1Cl [dimethylvinphos(Z)]
Detection Level (ppb) (cholinesterase [1]): 100 ppb

CCCSP(=S)(OCC)Oc1ccc(SC)cc1 (centres unmarked) [sulprofos]
Detection Level (ppb) (cholinesterase [1]): 20 ppb

CCOP(=O)(OCC)O/C(=C\Cl)c1ccc(Cl)cc1Cl [chlorfenvinphos]
Detection Level (ppb) (cholinesterase [1]): 40 ppb

CCCOP(=O)(OCCC)Oc1ccc(SC)cc1 [propafos]
Detection Level (ppb) (cholinesterase [1]): 1 ppb

CCOP(=S)(OCC)Oc1ccc([N+](=O)[O-])cc1 [parathion]
Detection Level (ppb) (cholinesterase [1]): 0.8 ppb

CCOP(=S)(OCC)SCSCC [phorate]
Detection Level (ppb) (cholinesterase [1]): 80 ppb

CCOP(=S)(OCC)Oc1ccc2c(C)c(Cl)c(=O)oc2c1 [coumafos]
Detection Level (ppb) (cholinesterase [1]): 2 ppb

CCOP(=S)(OCC)Oc1ccc(=O)n(-c2ccccc2)n1 [pyridaphenthion]
Detection Level (ppb) (cholinesterase [1]): 1 ppb

CCOP(=S)(Oc1ccc([N+](=O)[O-])cc1)c1ccccc1 (centres unmarked) [EPN]
Detection Level (ppb) (cholinesterase [1]): 40 ppb

CCOP(=S)(OCC)Oc1ccc([S+](C)[O-])cc1 (centres unmarked) [fensulfothion]
Detection Level (ppb) (cholinesterase [1]): 100 ppb

COP(=O)(OC)O/C(=C/Cl)c1ccc(Cl)cc1Cl [dimethylvinphos(E)]
Detection Level (ppb) (cholinesterase [1]): 100 ppb

CCOP(=S)(OCC)Oc1cc(Cl)c(Br)cc1Cl [bromofos-ethyl]
Detection Level (ppb) (cholinesterase [1]): 10 ppb
